Experimental data taken from the NIST ThermoML archive (doi:10.1016/j.tca.2015.02.004).
Where “and” joins values, the source holds several entries; their conditions need not be identical. Equal values may be shown once.

How the values were obtained:
[1] = Liquid, Diaphragm manometer
[2] = Boiling temperature at pressure P; conditions: Liquid, Distillation

C[Si](C)(C)N(c1ccccc1)[Si](C)(C)C [N,N-bis(trimethylsilyl)aniline]
Conditions | Boiling temperature at pressure P [°C] | vapor or sublimation pressure
[1], 321.8 K | – | 0.15 kPa
[1], 322.1 K | – | 0.2 kPa
[1], 330.7 K | – | 0.29 kPa
[1], 331.2 K | – | 0.24 kPa
[1], 331.4 K | – | 0.26 kPa
[1], 341.9 K | – | 0.36 kPa
[1], 351.2 K | – | 0.59 kPa and 0.61 kPa
[1], 351.4 K | – | 0.59 kPa
[1], 361.1 K | – | 0.96 kPa
[1], 361.2 K | – | 1 kPa
[1], 371.2 K | – | 1.56 kPa
[1], 380.7 K | – | 2.34 kPa
[1], 381.2 K | – | 2.32 kPa
[1], 390.9 K | – | 3.54 kPa
[1], 400.5 K | – | 5.22 kPa
[1], 400.7 K | – | 5.19 kPa
[1], 400.9 K | – | 5.65 kPa
[1], 410.7 K | – | 7.51 kPa
[1], 411 K | – | 7.35 kPa
[1], 421.4 K | – | 10.96 kPa
[1], 421.5 K | – | 10.91 kPa
[1], 421.9 K | – | 10.9 kPa
[1], 431.7 K | – | 15.13 kPa
[1], 441.2 K | – | 20.51 kPa
[1], 441.6 K | – | 20.37 kPa
[1], 451.2 K | – | 27.3 kPa
[2], 0.267 kPa | 60.00 | –

C[Si](C)(C)c1ccccc1 [trimethylphenylsilane]
Conditions | Boiling temperature at pressure P [°C] | vapor or sublimation pressure [kPa]
[1], 296.7 K | – | 0.33
[1], 297.7 K | – | 0.29
[1], 298.8 K | – | 0.31
[1], 322.2 K | – | 1.14
[1], 322.7 K | – | 1.28
[1], 333.2 K | – | 2.02
[1], 343.7 K | – | 3.24
[1], 352.2 K | – | 4.73
[1], 352.8 K | – | 4.91
[1], 371.9 K | – | 10.63
[1], 372.2 K | – | 11.04
[1], 373.2 K | – | 10.82
[1], 382.9 K | – | 15.75
[1], 391 K | – | 21.76
[1], 392.1 K | – | 21.75
[1], 392.4 K | – | 22.02
[1], 401.1 K | – | 29.35
[2], 1.866 kPa | 56.00 | –

C[Si](C)(C)N[Si](C)(C)C [1,1,1,3,3,3-hexamethyldisilazane]
[1]
Conditions | vapor or sublimation pressure [kPa]
290.8 K | 1.51
290.9 K | 1.54
292 K | 1.68
293.5 K | 1.73
301.1 K | 2.71
301.5 K | 2.68
311.4 K | 4.25
312.4 K | 4.36
320.2 K | 5.93
321.2 K | 6.6
329.7 K | 9.72
330.9 K | 10.21
331.8 K | 10.3
340.1 K | 14.79
341.1 K | 15.35
349.8 K | 20.68
352.7 K | 23.41
360.3 K | 30.3
360.5 K | 31.34
370 K | 42.85
371.8 K | 45.32
382.2 K | 59.76

C[Si](C)(C)Nc1ccccc1 [trimethyl(phenylamino)silane]
Conditions | Boiling temperature at pressure P [°C] | vapor or sublimation pressure [kPa]
[1], 311.6 K | – | 0.2
[1], 312.8 K | – | 0.24
[1], 332.5 K | – | 0.65
[1], 350.9 K | – | 1.64
[1], 371.8 K | – | 3.76
[1], 372.1 K | – | 3.79
[1], 390 K | – | 7.38
[1], 391.4 K | – | 7.86
[1], 391.6 K | – | 7.85
[1], 410.6 K | – | 14.88
[1], 411.6 K | – | 15.98
[1], 421.7 K | – | 21.19
[1], 422.7 K | – | 22.43
[1], 431.8 K | – | 28.53
[1], 432.7 K | – | 30.61
[1], 446.1 K | – | 43.07
[1], 452.1 K | – | 52.87
[1], 455.2 K | – | 55.6
[2], 0.4 kPa | 56.00 | –

C[Si](C)(C)NCc1ccccc1 [(benzylamino)trimethylsilane]
Conditions | Boiling temperature at pressure P [°C]
[2], 2 kPa | 98.00
